Numbered stars: 1 amine (or outer) side, 2 acyl side, 3 side chain; on linkers, the order of the positions; unused ones are H or OH. Square brackets hold non-standard residues; d marks the D form. Peptide text beside a SMILES is read from it. * marks the point of attachment. X4 = N#Cc1cccc(C[C@@H]2C[C@@H](C(=O)[*:2])N([*:1])C2)c1; Pro(trans-4-cHex) = O=C(O)[C@@H]1C[C@@H](C2CCCCC2)CN1; Trp(6-Cl) = N[C@@H](Cc1c[nH]c2cc(Cl)ccc12)C(=O)O; Phe(4-CN) = N#Cc1ccc(C[C@H](N)C(=O)O)cc1; X13 = CC1(C)CC[C@@H](C(=O)[*:2])N1[*:1]; Phe(4-F) = N[C@@H](Cc1ccc(F)cc1)C(=O)O; Hyp = O=C(O)[C@@H]1C[C@@H](O)CN1; dPip = O=C(O)[C@H]1CCCCN1; Ac5c = NC1(C(=O)O)CCCC1; Dab = NCC[C@H](N)C(=O)O; Bn = c1ccc(C*)cc1
Experiments:
human CCR10 [1] = molecular target: T1, human CCR10 (Homo sapiens, UniProt P46092); test: Calcium flux assay (CCR10 antagonism, CCL27 as agonist); assay type: cell-based; conditions: CCR10 transfected 300-19 murine pre-B cells; CCL27 30 nM
T1 construct: expressed in transfected cells
T1 sequence (P46092 1-362): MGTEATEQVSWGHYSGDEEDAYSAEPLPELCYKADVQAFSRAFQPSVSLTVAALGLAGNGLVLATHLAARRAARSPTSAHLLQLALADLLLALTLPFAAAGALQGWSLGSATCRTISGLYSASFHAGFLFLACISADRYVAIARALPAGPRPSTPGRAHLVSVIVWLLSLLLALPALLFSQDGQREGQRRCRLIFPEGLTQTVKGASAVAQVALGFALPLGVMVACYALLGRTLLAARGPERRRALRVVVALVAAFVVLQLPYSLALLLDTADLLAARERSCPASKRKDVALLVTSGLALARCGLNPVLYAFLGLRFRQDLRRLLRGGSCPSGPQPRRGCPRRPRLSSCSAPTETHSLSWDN
Protocol: (§1) Lyophilized peptides were weighed on a Microbalance (Mettler MX5) and dissolved in aqueous 90% DMSO to a final concentration of 10 mM unless otherwise stated. Stock solutions were kept at +4° C., and protected from light.
(§2) Peptides were assayed for CCR10 antagonism in a calcium flux assay and in a chemotaxis assay using a mouse pre-B cell line 300-19 stably transfected with human CCR10, and with human CCL27 as agonist.
The calcium flux release was assessed using CCR10 transfected 300-19 murine pre-B cells. These cells were labeled as a batch with Calcium4 Reagent (Molecular Devices, Sunnyvale, Calif.) in HBSS buffer for 60 min.
After dispensing 8×10^4 cells in each well of a 384-well black plate, a concentrated solution of the β-hairpin peptidomimetics of this invention in HBSS+0.1% BSA+0.1% DMSO (final concentration) was added to the cells. The entire plate was centrifuged and placed in a Flexstation II (Molecular Devices) automated plate reader. After reading a 20 s baseline, the Flexstation dispensed CCL27 (RnD systems) at a final concentration of 30 nM in HBSS+0.1% BSA onto the cells and calcium flux was measured for an additional 70 s.
Alternatively a FIipR384 (Molecular Devices) was used for read out of the 384-well plates. In this case about 8×10^4 cells were placed in each well, centrifuged, placed in the FlipR and after 5 s of baseline reading, the β-hairpin peptidomimetics in HBSS+0.1% BSA+0.1% DMSO (final concentration) were added. After an incubation time of 5 min, the CCL27 solution was added to the mixture and the calcium flux was measured for 200 s.
The maximum signal was determined from control wells without inhibitor. Percentage of inhibition was calculated from a range of compound concentrations, which were subsequently used to calculate IC50 values (Softmax Pro, Molecular Devices). All steps were carried out at room temperature.

human CCR10 [2] = molecular target: T1, human CCR10; test: Chemotaxis assay (CCR10-transfected 300-19 cells, CCL27 gradient); assay type: cell-based; conditions: CCR10-transfected 300-19 murine pre-B cells; 30 nM CCL27 gradient
Protocol: as §1, §2
The chemotactic response of CCR10-transfected 300-19 murine pre-B cells to a gradient of CCL27 (CTACK) was measured using disposable Transwell® assay plates from Costar (5 μm pore size) according to the protocol of the manufacturer. Briefly, cells were grown under sterile conditions at 37° C. with 5% CO2 in flasks containing RPMI+5% FCS, glutamine, penicillin/streptomycin (all media components were from Life Technologies) and the appropriate selection antibiotics (Puromycin, G418 or Tetracycline). For the assay, cells were pelleted by centrifugation, washed once in Dulbecco's phosphate buffered saline (DPBS), and resuspended to give 1×10^6 cells/ml in RPMI+0.5% bovine serum albumin (BSA). 100 μl of cell suspension was applied to the top of the assay filter. The β-hairpin peptidomimetics, diluted in the same assay medium, were added to both top and bottom chambers. The cells were allowed to migrate for 4-6 hours at 37° C. into the bottom chamber of the assay plate containing 30 nM of CCL27 (RnD systems). Migrated cells were counted using a FACS cytometer (Cytomics FC500, Beckman Coulter). Data normalization was performed using the number of any cells that had migrated in the absence of the β-hairpin peptidomimetic and the number of cells that have randomly migrated in absence of CCL27 [these values were taken as 100% (no inhibitory activity) and 0%, respectively]. From a range of compound concentrations IC50 were determined using Prism5 (GraphPad software).

| Structure (SMILES) | IC50 (human CCR10 [1]) [nM] | IC50 (human CCR10 [2]) [nM] |
| --- | --- | --- |
| N#Cc1cccc(C[C@@H]2C[C@H]3C(=O)N[C@@H](Cc4c[nH]c5ccccc45)C(=O)NC4(CCCC4)C(=O)N[C@@H](Cc4c[nH]c5ccccc45)C(=O)N[C@@H](CCN)C(=O)N4CCC[C@@H]4C(=O)N3C2)c1 [compound 40, cyclo(-Trp-Cyp-Trp-Dab-^DPro-Pro((4R)3CNBn)-)] (cyclo([Ac5c]W[Dab][dP][X4]W)) | 27.9 ± 10.5 | 3.8 |
| NCC[C@@H]1NC(=O)[C@H](Cc2c[nH]c3ccccc23)NC(=O)C2(CCCC2)NC(=O)[C@H](Cc2c[nH]c3ccccc23)NC(=O)[C@@H]2C[C@@H](C3CCCCC3)CN2C(=O)[C@H]2CCCN2C1=O [compound 41, cyclo(-Trp-Cyp-Trp-Dab-^DPro-Pro((4S)cHex)-)] (cyclo([Ac5c]W[Dab][dP][Pro(trans-4-cHex)]W)) | 54.3 ± 22 | 140 |
| CC1(C)CC[C@H]2C(=O)N[C@@H](Cc3c[nH]c4ccccc34)C(=O)NC3(CCCC3)C(=O)N[C@@H](Cc3c[nH]c4ccccc34)C(=O)N[C@@H](CCN)C(=O)N3CCC[C@@H]3C(=O)N21 [compound 42, cyclo(-Trp-Cyp-Trp-Dab-^DPro-Pro(5,5Me2)-)] (cyclo(W[Ac5c]W[Dab][dP][X13])) | 82.5 ± 30.4 | 14.2 |
| N#Cc1ccc(C[C@@H]2NC(=O)[C@@H]3C[C@@H](OCc4ccccc4)CN3C(=O)[C@H]3CCCN3C(=O)[C@H](CO)NC(=O)[C@H](Cc3ccc(F)cc3)NC(=O)C3(CCCC3)NC2=O)cc1 [compound 44, cyclo(-Phe(4CN)-Cyp-Phe(4F)-Ser-^DPro-Hyp(Bn)-)] (cyclo([Ac5c][Phe(4-F)]S[dP][Hyp](Bn)[Phe(4-CN)])) | 1.9 ± 2.1 | 13.5 |
| NCC[C@@H]1NC(=O)[C@H](Cc2c[nH]c3ccccc23)NC(=O)C2(CCCC2)NC(=O)[C@H](Cc2c[nH]c3ccccc23)NC(=O)[C@@H]2C[C@@H](OCc3ccccc3)CN2C(=O)[C@H]2CCCN2C1=O [compound 45, cyclo(-Trp-Cyp-Trp-Dab-^DPro-Hyp(Bn)-)] (cyclo([Ac5c]W[Dab][dP][Hyp](Bn)W)) | 65.8 ± 19.6 | 14 |

Second part, the compound after the results:

| IC50 (human CCR10 [1]) [nM] | IC50 (human CCR10 [2]) [nM] | Structure (SMILES) |
| --- | --- | --- |
| 12.6 ± 9 | 35.4 | O=C1NC2(CCCC2)C(=O)N[C@@H](Cc2c[nH]c3ccccc23)C(=O)N[C@@H](CO)C(=O)N2CCC[C@@H]2C(=O)N2C[C@H](OCc3ccccc3)C[C@H]2C(=O)N[C@H]1Cc1c[nH]c2ccccc12 [compound 46, cyclo(-Trp-Cyp-Trp-Ser-^DPro-Hyp(Bn)-)] (cyclo([Ac5c]WS[dP][Hyp](Bn)W)) |
| 8.5 ± 3.5 | 8.6 | NCC[C@@H]1NC(=O)[C@H](Cc2c[nH]c3ccccc23)NC(=O)C2(CCCC2)NC(=O)[C@H](Cc2c[nH]c3cc(Cl)ccc23)NC(=O)[C@@H]2C[C@@H](OCc3ccccc3)CN2C(=O)[C@H]2CCCN2C1=O [compound 48, cyclo(-Trp(6Cl)-Cyp-Trp-Dab-^DPro-Hyp(Bn)-)] (cyclo([Ac5c]W[Dab][dP][Hyp](Bn)[Trp(6-Cl)])) |
| 181 ± 110 | 5.3 | N#Cc1ccc(C[C@@H]2NC(=O)[C@@H]3C[C@@H](OCc4ccccc4)CN3C(=O)[C@H]3CCCN3C(=O)[C@H](CCN)NC(=O)[C@H](Cc3c[nH]c4ccccc34)NC(=O)C3(CCCC3)NC2=O)cc1 [compound 49, cyclo(-Phe(4CN)-Cyp-Trp-Dab-^DPro-Hyp(Bn)-)] (cyclo([Ac5c]W[Dab][dP][Hyp](Bn)[Phe(4-CN)])) |
| 0.5 ± 0.2 | 1.8 | N#Cc1ccc(C[C@@H]2NC(=O)[C@@H]3C[C@@H](OCc4ccccc4)CN3C(=O)[C@H]3CCCCN3C(=O)[C@H](CO)NC(=O)[C@H](Cc3c[nH]c4ccccc34)NC(=O)C3(CCCC3)NC2=O)cc1 [compound 50, cyclo(-Phe(4CN)-Cyp-Trp-Ser-^DPip-Hyp(Bn)-)] (cyclo([Ac5c]WS[dPip][Hyp](Bn)[Phe(4-CN)])) |

— patent US8754038B2, “Template-fixed peptidomimetics with CCR10 antagonistic activity” (priority 2009, dated 2014)
